Source: paper PMC10989020, “Preclinical characterization of a non-peptidomimetic HIV protease inhibitor with improved metabolic stability” (Antimicrobial Agents and Chemotherapy, 2024)
Read-outs that look alike come from different tables or passages of the source.

Experiments:
[1] = Cytotoxicity in cell lines of the non-HIV virus panel (summary); type: cell-based; conditions: human, HepG2-NTCP, Huh7-Lunet replicon cells, NHBE, A549-ACE2, read-out: CC50 range in the corresponding cell lines
Method: (§1) Compound cytotoxicity assessment in MT-4 cells, primary CD4+ T lymphocytes, and MDMs was carried out using a protocol identical to the antiviral assay except uninfected cells were used and tested with higher concentration ranges of test compounds. Assessment of cytotoxicity in additional human cell lines (Gal-PC3, Gal-HepG2, HEp-2, Huh-7, MRC-5, HepG2-NTCP, Huh7-Lunet HCV 1b and 2a replicons, NHBE, A549-hACE2) and primary human PBMCs (resting and stimulated with PHA/IL-2) and hepatocytes have been described previously ([19]). For all cytotoxicity assays, the CC50 value for puromycin was determined as a positive internal control and to assess assay sensitivity in each cell type. The effect of tested compounds on cell viability was measured using a CellTiter-Glo readout, performed according to the manufacturer’s recommendations.

[2] = human
[3] = Repeated oral administration in dogs; type: in vivo; conditions: high doses
HIV-1 IIIb [4] = experiment: Dose-escalation resistance selection in MT-2 cells; type: cell-based
[5] = Cytotoxicity in CD4+ T-lymphocytes; type: cell-based; conditions: human, uninfected (mock infected) primary CD4+ T lymphocytes
Method: as §1

[6] = Cytotoxicity in stimulated PBMCs; type: cell-based; conditions: human
Method: as §1

HIV-1 IIIb [7] = experiment: 5-day cytoprotection antiviral assay in MT-4 cells; type: cell-based
[8] = Cytotoxicity in unstimulated PBMCs; type: cell-based; conditions: human, unstimulated (resting) PBMCs
Method: as §1

Cytotoxicity in NHBE = type: cell-based; conditions: human, NHBE cells
Method: as §1

Cytotoxicity in HEp-2 = type: cell-based; conditions: human, HEp-2 cells
Method: as §1

[9] = system: panel of 49 patient-derived HIV-1 reporter viruses with PI resistance-associated substitutions; type: cell-based
HIV-1 BaL = experiment: p24 production antiviral assay in CD4+ T-lymphocytes; type: cell-based; conditions: Human immunodeficiency virus 1, T-lymphocyte, HIV-1BaL infected
Description: Antiviral assays performed in HIV-1BaL infected CD4 +T-lymphocytes and monocyte-derived macrophages (MDMs) have been described previously ([18]). Cell-free supernatants derived from the CD4 +T cell and macrophage cultures were harvested 7- and 12-days post-infection, respectively, and the amount of HIV present was quantified by p24 antigen enzyme-linked immunosorbent assay (ELISA, Perkin Elmer, Waltham, MA) performed according to the manufacturer’s protocol.

[10] = Cytotoxicity in primary human hepatocytes; type: cell-based
Method: as §1

SARS-CoV-2 = experiment: SARS-CoV2-Nluc reporter antiviral assay; conditions: Severe acute respiratory syndrome coronavirus 2
Method: (§2) The hepatitis B virus (HBV) surface antigen (HBsAg) antiviral assay was performed as previously described ([28]) using ND-654 as a positive control. The respiratory syncytial virus (RSV) A2 HEp-2 antiviral assay was performed as previously described ([29]) using YM-53403 as a positive control. The severe acute respiratory syndrome coronavirus 2 (SARS-CoV-2) antiviral assay was performed as described previously ([30]) using remdesivir as a positive control.

in vitro [11] = type: cell-based; conditions: human
Method: as §1

[12] = Metabolic stability in human liver microsomes; type: in vitro ADME
[13] = Cytotoxicity in A549-hACE2; type: cell-based; conditions: human, A549-hACE2 cells
Method: as §1

HCV-2a = experiment: microbe, parasite or virus in culture; conditions: Hepatitis C virus, Huh-7
[14] = target: non-HIV aspartic proteases (BACE, cathepsin D, cathepsin E, pepsin, renin, and napsin); type: biochemical; conditions: IC50 considered equal to Ki(app)
Method: Except for the substrate used in the renin assay, all fluorogenic substrates and recombinant enzymes were purchased from R&D Systems and the assays were performed according to the manufacturer’s recommended procedure with minor changes. For the BACE1 assay, recombinant human BACE1 (50 nM) and test compound at various concentrations were added to a reaction buffer containing 20 mM sodium acetate at pH 4.8 with 0.06% Triton X-100 and 1% DMSO. After a 15-minute pre-incubation, the enzymatic reaction was initiated by the addition of fluorogenic substrate to a final concentration of 1 µM and a total volume of 100 µL. For the Cat D assay, after a 15-minute pre-incubation, the enzymatic reaction was initiated by the addition of the fluorogenic substrate to a final concentration of 4 µM and a total volume of 100 µL. […] Activated Cat E (0.5 nM) and test compound at various concentrations were added to the assay buffer containing 100 mM sodium acetate at pH 3.5 with 200 mM sodium chloride and 1% DMSO. After a 15-minute pre-incubation, the enzymatic reaction was initiated by the addition of the fluorogenic substrate to a final concentration of 20 µM and a total volume of 100 µL. […]
Enzymatic assay data were analyzed in GraphPad Prism (version 9.3.0) by curve fitting with a four-parameter logistic equation to determine inhibitor half-maximal inhibitory concentration (IC50) values.

[15] = Cytotoxicity across human cell types (summary ranges); type: cell-based; conditions: read-out: mean CC50 range
Method: as §1

[16] = system: HBV, HCV, RSV, SARS-CoV-2; experiment: Antiviral activity against panel of non-HIV viruses (summary); conditions: read-out: EC50 range across non-HIV viruses
Method: Antiviral assays using appropriate cell lines infected with non-HIV viruses were also performed. […] The hepatitis B virus (HBV) surface antigen (HBsAg) antiviral assay was performed as previously described ([28]) using ND-654 as a positive control. The respiratory syncytial virus (RSV) A2 HEp-2 antiviral assay was performed as previously described ([29]) using YM-53403 as a positive control. The severe acute respiratory syndrome coronavirus 2 (SARS-CoV-2) antiviral assay was performed as described previously ([30]) using remdesivir as a positive control.

HBV = experiment: microbe, parasite or virus in culture; conditions: Hepatitis B virus
Method: as §2

[17] = Cytotoxicity in Gal-HepG2; type: cell-based; conditions: human, Gal-HepG2 cells
Method: as §1

HIV-1IIIb = experiment: Antiviral activity in MT-2/HIV-1IIIb cultures; type: cell-based; conditions: Human immunodeficiency virus 1
[18] = Predicted clearance from cynomolgus monkey liver microsome fractions; type: in vitro ADME
[19] = Predicted clearance from rat liver microsome fractions; type: in vitro ADME
in vitro [20] = type: cell-based; conditions: human; remark: listed apart in the source
Method: as §1

[21] = Cytotoxicity in monocyte-derived macrophages; type: cell-based; conditions: human, uninfected (mock infected) monocyte-derived macrophages
Method: as §1

[22] = Predicted clearance from dog liver microsome fractions; type: in vitro ADME
[23] = Cytotoxicity in HepG2-NTCP; type: cell-based; conditions: human, HepG2-NTCP cells
Method: as §1

[24] = system: HIV-1LAI wild type and site-directed PR mutants; experiment: microbe, parasite or virus in culture; type: cell-based

Structure (SMILES): CC(C)(CC1(c2ccc(-c3cnn(C4CC4)n3)cc2)NC(=N)N(C(COC(=O)NC2(C(F)F)CC2)c2ccc(Cl)c(-c3ncnn3C(F)F)c2)C1=O)C(F)(F)F (stereo not drawn) [GS-9770]
- CC50 [1]: 4.7 to 15.1 µM
- predicted plasma half-life in humans [2]: ~ 18.5 hours
- finding after repeated oral administration [3]: bronchoalveolar inflammation observed in the lungs of dogs
- GS-9770 concentration at variant first emergence (HIV-1 IIIb [4]; variant L24I M46L A77I V82A): 100 nM
- GS-9770 concentration at variant first emergence (HIV-1 IIIb [4]; variant M46L A77I V82A): 100 nM
- CC50 [5]: 9 ± 0.4 µM
- CC50 [6]: 9.1 ± 0.6 µM
- EC50 (HIV-1 IIIb [7]; Human immunodeficiency virus 1, IIIB, T-cell, 120 h): 0.011 ± 0.002 µM
- 95% effective concentration (EC95) (HIV-1 IIIb [7]; calculated from MT-4/HIV-1IIIb EC50 and Hill coefficient): 0.0216 µM
- CC50 [8]: 9.1 ± 5.5 µM
- CC50 (Cytotoxicity in NHBE): 4.7 ± 1.7 µM
- CC50 (Cytotoxicity in HEp-2): 17 ± 2 µM
- loss in susceptibility ([9]; virus 8, virus 11 and virus 42): 3 fold
- mutant vs wild-type HIV EC50 FC ([9]; virus 13 (L10I, M46I, G48V, I50V, V82A, L90M)): 21 fold
- mutant vs wild-type HIV EC50 FC ([9]; virus 29 (L10F/L, D30N, I54V, N88D, L90M)): 12 fold
- mutant vs wild-type HIV EC50 FC ([9]; virus 43 (L10I, M46L, I54V, V82A)): 11 fold
- EC50 (HIV-1 BaL): 0.0085 ± 0.0025 µM
- CC50 [10]: 34 ± 16 µM
- EC50 (SARS-CoV-2): 5.3 ± 1.9 µM
- CC50 (in vitro [11]): 15.1 ± 3 µM
- Eh% (percent predicted hepatic extraction) [12]: 9%
- Predicted CL (predicted human clearance) [12]: 1.83 mL/min/kg
- half-life ([12]; read-out: T½ in the presence of human liver microsomes): > 6.58 h
- CC50 [13]: 7.8 ± 2.1 µM
- EC50 (HCV-2a): 10.4 ± 0.3 µM
- Ki ([14]; read-out: Ki(app), lower end of range over six non-HIV proteases): 0.106 µM
- Ki ([14]; read-out: Ki(app), upper end of range over six non-HIV proteases): > 100 µM
- CC50 ([15]; Gal-HepG2 and MRC-5 cells, five human cell lines (Gal-PC3, HEp-2, Huh7, Gal-HepG2, MRC-5)): 13 to 20 µM
- CC50 ([15]; human, human cell lines and primary cells (15 cell types), across 15 different cell types): 4.7 to 34 µM
- CC50 ([15]; primary human hepatocytes and PBMCs (stimulated and unstimulated)): 9.1 to 34 µM
- EC50 [16]: 2.5 to 34 µM
- EC50 (HBV): 11 ± 4 µM
- CC50 [17]: 13 ± 6 µM
- EC50 (HIV-1IIIb): 0.004 µM
- in vitro predicted blood CL [18]: 2.5 mL/min/kg
- in vitro predicted blood CL [19]: 1.2 mL/min/kg
- CC50 (in vitro [20]): 15.1 ± 2.1 µM
- CC50 [21]: 16 ± 3 µM
- in vitro predicted blood CL [22]: 12 mL/min/kg
- CC50 [23]: 8.4 ± 2 µM
- EC50 ([24]; Human immunodeficiency virus 1, PR L24I M46L A77I V82A): 0.0059 ± 0.0032 µM
- EC50 ([24]; Human immunodeficiency virus 1, PR L24I M46L I64V A77I V82A): 0.0224 ± 0.0073 µM
- EC50 ([24]; Human immunodeficiency virus 1, PR M46L A77I V82A): 0.0083 ± 0.0018 µM
- EC50 ([24]; Human immunodeficiency virus 1, PR V82A): 0.0082 ± 0.0032 µM
- EC50 ([24]; Human immunodeficiency virus 1, Wild type (WT) HIV-1LAI): 0.0031 ± 0.0016 µM
